From US10231954B2, “Neurodegenerative therapies” (LYTIX BIOPHARMA AS, priority 2014, dated 2019)
Like-named read-outs stand apart in the source and are kept apart here.

Assays:
MST2 = target: T1, MST2 (Homo sapiens, UniProt Q13188); test: Kinase profiling MST2; type: biochemical; settings: for remaining activity at 100 µM: read-out: residual kinase activity, MST2
T1 sequence (Q13188 1-491): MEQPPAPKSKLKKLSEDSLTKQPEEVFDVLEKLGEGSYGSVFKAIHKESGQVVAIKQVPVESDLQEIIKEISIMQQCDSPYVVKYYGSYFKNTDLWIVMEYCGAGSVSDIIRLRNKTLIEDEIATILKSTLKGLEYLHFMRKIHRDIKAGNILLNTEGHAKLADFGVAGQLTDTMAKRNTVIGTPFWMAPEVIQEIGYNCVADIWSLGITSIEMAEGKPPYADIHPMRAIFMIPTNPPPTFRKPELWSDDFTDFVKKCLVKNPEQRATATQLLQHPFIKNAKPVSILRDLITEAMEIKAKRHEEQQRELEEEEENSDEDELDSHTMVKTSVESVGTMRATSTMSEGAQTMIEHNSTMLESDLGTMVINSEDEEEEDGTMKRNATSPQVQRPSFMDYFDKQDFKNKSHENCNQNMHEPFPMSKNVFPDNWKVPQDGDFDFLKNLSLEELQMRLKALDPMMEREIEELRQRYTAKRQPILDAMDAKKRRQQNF
Description: (§1) Any value less that 25 is considered to be highly significant inhibition.

HIPK2 = HIPK2 (Homo sapiens, UniProt Q9H2X6); test: Kinase profiling HIPK2; type: biochemical; settings: for remaining activity at 100 µM: read-out: residual kinase activity, HIPK2
HIPK2, sequence (Q9H2X6 whole entry, species assumed): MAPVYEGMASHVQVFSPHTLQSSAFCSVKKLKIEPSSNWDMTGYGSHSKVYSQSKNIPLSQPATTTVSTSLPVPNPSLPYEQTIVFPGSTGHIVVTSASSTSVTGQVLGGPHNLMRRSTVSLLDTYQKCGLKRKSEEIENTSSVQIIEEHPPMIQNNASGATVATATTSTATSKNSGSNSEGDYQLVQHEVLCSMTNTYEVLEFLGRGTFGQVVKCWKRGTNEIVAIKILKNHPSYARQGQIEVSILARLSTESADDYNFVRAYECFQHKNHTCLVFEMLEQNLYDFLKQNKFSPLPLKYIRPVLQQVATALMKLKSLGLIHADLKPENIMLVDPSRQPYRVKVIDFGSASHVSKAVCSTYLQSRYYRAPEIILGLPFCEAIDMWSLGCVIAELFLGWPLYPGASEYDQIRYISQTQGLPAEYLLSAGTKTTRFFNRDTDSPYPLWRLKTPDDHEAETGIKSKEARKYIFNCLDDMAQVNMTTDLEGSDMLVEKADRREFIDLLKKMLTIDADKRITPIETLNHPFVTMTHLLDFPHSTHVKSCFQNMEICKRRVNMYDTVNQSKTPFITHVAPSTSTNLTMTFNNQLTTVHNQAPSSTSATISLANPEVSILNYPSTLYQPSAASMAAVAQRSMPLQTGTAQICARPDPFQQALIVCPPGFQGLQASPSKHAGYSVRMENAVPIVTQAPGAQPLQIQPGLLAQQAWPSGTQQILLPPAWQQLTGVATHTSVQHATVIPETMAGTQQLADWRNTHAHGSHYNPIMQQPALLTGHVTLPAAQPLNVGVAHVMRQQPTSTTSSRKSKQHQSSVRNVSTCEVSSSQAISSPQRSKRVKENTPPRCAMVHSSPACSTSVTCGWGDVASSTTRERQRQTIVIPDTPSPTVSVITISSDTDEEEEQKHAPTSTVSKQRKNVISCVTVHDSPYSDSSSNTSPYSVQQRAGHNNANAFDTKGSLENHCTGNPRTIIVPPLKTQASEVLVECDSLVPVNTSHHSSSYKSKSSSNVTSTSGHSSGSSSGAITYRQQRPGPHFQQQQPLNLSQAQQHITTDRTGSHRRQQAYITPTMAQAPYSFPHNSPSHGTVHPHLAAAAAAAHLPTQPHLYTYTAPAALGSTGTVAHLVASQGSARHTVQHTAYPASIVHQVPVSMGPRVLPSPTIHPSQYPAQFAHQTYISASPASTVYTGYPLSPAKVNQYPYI
Description: as §1

TAK1 = target: T2, TAK1 (Homo sapiens, UniProt O43318); test: Kinase profiling TAK1; type: biochemical; settings: for remaining activity at 100 µM: read-out: residual kinase activity, TAK1
T2 sequence (O43318 1-303 limits assumed): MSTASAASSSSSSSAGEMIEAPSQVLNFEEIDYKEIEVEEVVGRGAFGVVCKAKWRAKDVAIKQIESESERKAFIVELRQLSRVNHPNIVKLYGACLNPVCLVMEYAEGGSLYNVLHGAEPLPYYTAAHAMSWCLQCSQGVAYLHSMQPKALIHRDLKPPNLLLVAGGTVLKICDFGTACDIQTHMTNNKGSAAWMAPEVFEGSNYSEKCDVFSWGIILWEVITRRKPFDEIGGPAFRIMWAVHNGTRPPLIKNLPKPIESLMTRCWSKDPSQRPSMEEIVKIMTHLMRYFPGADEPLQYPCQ
T2 sequence (Q15750 437-504 partner limits assumed): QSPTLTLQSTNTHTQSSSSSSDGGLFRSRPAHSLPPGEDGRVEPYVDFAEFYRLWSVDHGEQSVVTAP
Description: as §1

PKCγ = PKCγ (Homo sapiens, UniProt P05129); test: Kinase profiling PKCγ; type: biochemical; settings: for remaining activity at 100 µM: read-out: residual kinase activity, PKCγ
Description: as §1

PAK4 = PAK4 (Homo sapiens, UniProt O96013); test: Kinase profiling PAK4; type: biochemical; settings: for remaining activity at 100 µM: read-out: residual kinase activity, PAK4
PAK4, sequence (O96013 whole entry, species assumed): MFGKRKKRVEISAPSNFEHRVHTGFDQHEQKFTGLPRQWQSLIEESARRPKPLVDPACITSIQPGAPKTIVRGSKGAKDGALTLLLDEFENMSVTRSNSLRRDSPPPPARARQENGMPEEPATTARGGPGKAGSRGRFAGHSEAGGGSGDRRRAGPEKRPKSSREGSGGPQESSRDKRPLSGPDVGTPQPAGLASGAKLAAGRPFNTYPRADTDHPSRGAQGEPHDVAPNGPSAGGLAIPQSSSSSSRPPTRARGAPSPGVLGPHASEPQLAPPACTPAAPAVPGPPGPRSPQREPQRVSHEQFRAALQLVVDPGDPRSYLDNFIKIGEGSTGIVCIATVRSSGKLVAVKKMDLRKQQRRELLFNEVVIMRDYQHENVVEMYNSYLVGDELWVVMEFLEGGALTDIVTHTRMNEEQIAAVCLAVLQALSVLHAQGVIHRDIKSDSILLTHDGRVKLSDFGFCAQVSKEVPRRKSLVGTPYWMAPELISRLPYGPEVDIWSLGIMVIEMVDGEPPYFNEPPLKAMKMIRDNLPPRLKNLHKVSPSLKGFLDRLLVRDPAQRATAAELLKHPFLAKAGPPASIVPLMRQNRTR
Description: as §1

S6K1 = S6K1 (Homo sapiens, UniProt P23443); test: Kinase profiling S6K1; type: biochemical; settings: for remaining activity at 100 µM: read-out: residual kinase activity, S6K1
S6K1, sequence (P23443 whole entry, species assumed): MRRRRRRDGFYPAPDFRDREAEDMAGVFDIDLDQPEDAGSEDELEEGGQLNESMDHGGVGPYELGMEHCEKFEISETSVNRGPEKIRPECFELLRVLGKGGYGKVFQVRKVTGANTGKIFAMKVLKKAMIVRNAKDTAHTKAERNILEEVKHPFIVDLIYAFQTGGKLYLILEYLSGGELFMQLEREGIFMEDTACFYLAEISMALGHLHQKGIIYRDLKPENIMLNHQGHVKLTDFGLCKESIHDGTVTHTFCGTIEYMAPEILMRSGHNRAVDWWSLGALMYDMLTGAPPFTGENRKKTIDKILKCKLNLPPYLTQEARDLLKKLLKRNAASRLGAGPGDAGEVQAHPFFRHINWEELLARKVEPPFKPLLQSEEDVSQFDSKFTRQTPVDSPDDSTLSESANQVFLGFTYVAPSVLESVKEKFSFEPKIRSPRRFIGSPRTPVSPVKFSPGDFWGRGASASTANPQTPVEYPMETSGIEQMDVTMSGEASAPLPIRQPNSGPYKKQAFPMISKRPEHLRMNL
Description: as §1

AMPK (hum) = test: Kinase profiling AMPK (hum); type: biochemical, human
Description: as §1

RSK2 = RSK2 (Homo sapiens, UniProt P51812); test: Kinase profiling RSK2; type: biochemical; settings: for remaining activity at 100 µM: read-out: residual kinase activity, RSK2
RSK2, sequence (P51812 whole entry, species assumed): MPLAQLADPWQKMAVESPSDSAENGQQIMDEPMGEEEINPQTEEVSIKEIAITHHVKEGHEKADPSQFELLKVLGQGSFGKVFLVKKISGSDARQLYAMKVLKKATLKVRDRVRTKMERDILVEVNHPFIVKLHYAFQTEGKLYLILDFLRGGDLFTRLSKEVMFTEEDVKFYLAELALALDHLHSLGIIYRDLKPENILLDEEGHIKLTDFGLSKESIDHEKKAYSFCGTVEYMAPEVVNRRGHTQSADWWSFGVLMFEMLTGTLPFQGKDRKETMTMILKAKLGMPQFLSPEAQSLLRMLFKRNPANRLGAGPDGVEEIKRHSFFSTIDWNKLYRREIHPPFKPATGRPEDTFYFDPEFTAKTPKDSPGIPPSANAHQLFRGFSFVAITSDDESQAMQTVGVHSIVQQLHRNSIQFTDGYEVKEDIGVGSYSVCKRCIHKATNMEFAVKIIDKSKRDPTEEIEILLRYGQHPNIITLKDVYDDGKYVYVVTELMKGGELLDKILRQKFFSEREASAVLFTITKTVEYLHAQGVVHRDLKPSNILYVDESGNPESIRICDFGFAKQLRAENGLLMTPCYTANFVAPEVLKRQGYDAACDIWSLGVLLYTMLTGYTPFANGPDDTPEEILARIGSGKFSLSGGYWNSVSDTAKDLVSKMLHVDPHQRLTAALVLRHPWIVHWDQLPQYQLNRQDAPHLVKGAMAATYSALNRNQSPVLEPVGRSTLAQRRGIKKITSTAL
Description: as §1

CAMKKb = CAMKKb (Homo sapiens, UniProt Q96RR4); test: Kinase profiling CAMKKb; type: biochemical; settings: for remaining activity at 100 µM: read-out: residual kinase activity, CAMKKb
CAMKKb, sequence (Q96RR4 whole entry, species assumed): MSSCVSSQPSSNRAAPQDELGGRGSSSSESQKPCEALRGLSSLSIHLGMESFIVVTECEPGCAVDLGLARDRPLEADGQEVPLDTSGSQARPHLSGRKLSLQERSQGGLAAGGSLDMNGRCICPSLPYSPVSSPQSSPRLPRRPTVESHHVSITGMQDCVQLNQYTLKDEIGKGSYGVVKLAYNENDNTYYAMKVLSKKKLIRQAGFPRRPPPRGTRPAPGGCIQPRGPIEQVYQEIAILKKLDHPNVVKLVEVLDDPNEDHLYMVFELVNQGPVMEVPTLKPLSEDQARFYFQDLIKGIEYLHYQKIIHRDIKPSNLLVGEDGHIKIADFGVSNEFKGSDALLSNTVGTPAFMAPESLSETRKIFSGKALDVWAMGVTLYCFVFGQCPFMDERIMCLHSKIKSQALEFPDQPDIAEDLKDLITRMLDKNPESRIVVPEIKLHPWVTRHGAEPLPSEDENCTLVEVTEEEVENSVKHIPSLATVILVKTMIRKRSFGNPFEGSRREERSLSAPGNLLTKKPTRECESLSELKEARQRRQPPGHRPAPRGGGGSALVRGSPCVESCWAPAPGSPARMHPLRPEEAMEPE
Description: as §1

MKK6 = target: T3, MKK6 (Homo sapiens, UniProt P52564); test: Kinase profiling MKK6; type: biochemical; settings: for remaining activity at 100 µM: read-out: residual kinase activity, MKK6
T3 sequence (P52564 1-334): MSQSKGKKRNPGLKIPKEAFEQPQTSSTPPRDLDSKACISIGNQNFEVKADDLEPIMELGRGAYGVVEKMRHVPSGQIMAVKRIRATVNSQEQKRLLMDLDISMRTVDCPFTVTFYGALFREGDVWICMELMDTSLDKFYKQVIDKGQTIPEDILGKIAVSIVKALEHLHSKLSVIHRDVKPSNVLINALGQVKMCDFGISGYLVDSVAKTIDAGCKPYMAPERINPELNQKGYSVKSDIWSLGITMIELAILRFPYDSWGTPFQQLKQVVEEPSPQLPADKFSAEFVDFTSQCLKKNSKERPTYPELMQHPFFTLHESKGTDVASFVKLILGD
Description: as §1

LKB1 = target: T4, LKB1 (Homo sapiens, UniProt Q15831); test: Kinase profiling LKB1; type: biochemical; settings: for remaining activity at 100 µM: read-out: residual kinase activity, LKB1
T4 sequence (Q15831 1-433): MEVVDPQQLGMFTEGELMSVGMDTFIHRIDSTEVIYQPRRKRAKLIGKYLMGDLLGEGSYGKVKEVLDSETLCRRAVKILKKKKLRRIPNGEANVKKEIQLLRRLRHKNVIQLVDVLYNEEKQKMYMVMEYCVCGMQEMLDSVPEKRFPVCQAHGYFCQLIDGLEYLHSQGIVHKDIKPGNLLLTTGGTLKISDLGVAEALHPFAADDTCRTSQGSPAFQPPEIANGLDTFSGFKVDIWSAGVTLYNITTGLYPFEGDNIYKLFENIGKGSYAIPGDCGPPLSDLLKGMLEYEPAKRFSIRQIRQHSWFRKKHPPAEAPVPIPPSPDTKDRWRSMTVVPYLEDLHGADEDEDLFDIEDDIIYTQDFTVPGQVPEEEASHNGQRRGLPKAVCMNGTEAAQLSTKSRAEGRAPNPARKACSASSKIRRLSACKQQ
T4 sequence (Q7RTN6 1-431 partner): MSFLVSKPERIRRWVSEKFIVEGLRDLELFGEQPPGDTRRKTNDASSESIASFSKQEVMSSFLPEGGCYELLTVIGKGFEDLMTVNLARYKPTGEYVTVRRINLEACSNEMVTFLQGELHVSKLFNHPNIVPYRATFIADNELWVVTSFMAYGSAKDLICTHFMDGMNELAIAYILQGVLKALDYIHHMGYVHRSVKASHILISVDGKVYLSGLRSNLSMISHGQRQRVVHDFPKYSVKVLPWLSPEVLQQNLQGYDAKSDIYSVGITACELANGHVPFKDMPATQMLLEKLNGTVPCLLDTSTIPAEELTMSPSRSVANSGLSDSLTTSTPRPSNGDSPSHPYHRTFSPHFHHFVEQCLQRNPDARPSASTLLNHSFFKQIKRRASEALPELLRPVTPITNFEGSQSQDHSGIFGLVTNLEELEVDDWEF
T4 sequence (Q9Y376 1-341 partner): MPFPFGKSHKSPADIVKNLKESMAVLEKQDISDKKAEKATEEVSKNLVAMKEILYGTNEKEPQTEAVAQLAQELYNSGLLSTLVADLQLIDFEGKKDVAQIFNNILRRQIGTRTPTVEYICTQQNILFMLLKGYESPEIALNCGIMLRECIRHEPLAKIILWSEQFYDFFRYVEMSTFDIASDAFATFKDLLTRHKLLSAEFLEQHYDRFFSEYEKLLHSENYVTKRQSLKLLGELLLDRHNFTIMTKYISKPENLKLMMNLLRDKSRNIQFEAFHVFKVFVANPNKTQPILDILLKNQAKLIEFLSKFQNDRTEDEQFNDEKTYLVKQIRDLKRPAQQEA
Description: as §1

STK33 = STK33 (Homo sapiens, UniProt Q9BYT3); test: Kinase profiling STK33; type: biochemical; settings: for remaining activity at 100 µM: read-out: residual kinase activity, STK33
STK33, sequence (Q9BYT3 whole entry, species assumed): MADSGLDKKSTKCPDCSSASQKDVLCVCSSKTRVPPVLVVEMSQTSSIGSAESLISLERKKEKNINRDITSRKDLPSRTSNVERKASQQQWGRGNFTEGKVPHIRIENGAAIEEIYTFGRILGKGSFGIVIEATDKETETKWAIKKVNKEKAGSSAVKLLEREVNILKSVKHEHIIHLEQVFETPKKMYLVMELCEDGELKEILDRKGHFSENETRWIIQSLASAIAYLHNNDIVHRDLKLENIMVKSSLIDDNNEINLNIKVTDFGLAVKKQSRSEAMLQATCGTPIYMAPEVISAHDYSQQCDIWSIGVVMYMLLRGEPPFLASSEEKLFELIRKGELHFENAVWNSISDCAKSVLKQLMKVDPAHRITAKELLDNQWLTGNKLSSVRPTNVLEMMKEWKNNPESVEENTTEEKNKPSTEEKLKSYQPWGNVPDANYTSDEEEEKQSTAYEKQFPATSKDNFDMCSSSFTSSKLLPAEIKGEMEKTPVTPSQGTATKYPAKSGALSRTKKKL
Description: as §1

[1] = 100 micromolar inhibitor concentration, 100 is no change
[2] = 100 micromolar inhibitor, 100 = no change

Compound | remaining activity at 100 µM (MST2; [1]) [%] | remaining activity at 100 µM (HIPK2; [1]) [%] | remaining activity at 100 µM (TAK1; [1]) [%] | remaining activity at 100 µM (PKCγ; [1]) [%] | remaining activity at 100 µM (PAK4; [1]) [%] | remaining activity at 100 µM (S6K1; [1]) [%] | residual kinase activity, AMPK (hum) (AMPK (hum); [1]) | remaining activity at 100 µM (RSK2; [1]) [%] | remaining activity at 100 µM (CAMKKb; [1]) [%] | residual kinase activity, MST2 (MST2; [1]) | residual kinase activity, HIPK2 (HIPK2; [1]) | residual kinase activity, TAK1 (TAK1; [1]) | residual kinase activity, PKCγ (PKCγ; [1]) | residual kinase activity, PAK4 (PAK4; [1]) | residual kinase activity, S6K1 (S6K1; [1]) | residual kinase activity, RSK2 (RSK2; [1]) | residual kinase activity, CAMKKb (CAMKKb; [1]) | residual kinase activity, MKK6 (MKK6; [1]) | residual kinase activity, LKB1 (LKB1; [1]) | residual kinase activity, STK33 (STK33; [1]) | also measured
CC(=O)Nc1nc2ccc(C(F)(F)F)cc2s1 [Compound 01-90] | 99 | 16 | 83 | 53 | 67 | 85 | 74 | 92 | 29 | – | – | – | – | – | – | – | – | – | – | – | remaining activity at 100 µM (MKK6; [1]): 85%; remaining activity at 100 µM (LKB1; [1]): 79%; remaining activity at 100 µM (STK33; [1]): 46%
CC(=O)Nc1nc2ccc(C#N)cc2s1 [Compound 01-94] | 56 | 23 | 17 | 83 | 34 | 73 | 40 | 87 | 35 | – | – | – | – | – | – | – | – | – | – | – | remaining activity at 100 µM (MKK6; [1]): 98%; remaining activity at 100 µM (LKB1; [1]): 35%; remaining activity at 100 µM (STK33; [1]): 35%
CC(=O)Nc1cccc(NC(=O)c2nc3ccc(O)cc3s2)c1 [Compound 03-07, N-(3-acetamidophenyl)-6-hydroxybenzo[d]thiazole-2-carboxamide] | – | – | – | – | – | – | – | – | – | – | – | – | – | – | – | – | – | – | – | – | remaining activity at 100 µM (MST2; [2]): 68%; remaining activity at 100 µM (HIPK2; [2]): 46%; remaining activity at 100 µM (TAK1; [2]): 53%; remaining activity at 100 µM (PKCγ; [2]): 98%; remaining activity at 100 µM (PAK4; [2]): 92%; remaining activity at 100 µM (S6K1; [2]): 26%; residual kinase activity, AMPK (hum) (AMPK (hum); [2]): 34; remaining activity at 100 µM (RSK2; [2]): 71%; remaining activity at 100 µM (CAMKKb; [2]): 30%; remaining activity at 100 µM (MKK6; [2]): 114%; remaining activity at 100 µM (LKB1; [2]): 83%; remaining activity at 100 µM (STK33; [2]): 63%
O=C(Nc1nc2cc(O)ccc2s1)c1ccncc1 [Compound 03-11] | – | – | – | – | – | – | 98 | – | – | 84 | 67 | 55 | 101 | 73 | 83 | 71 | 88 | 101 | 87 | 77 | –
O=C(Nc1nc2ccc(O)cc2s1)c1ccccn1 [Compound 03-12] | – | – | – | – | – | – | 90 | – | – | 61 | 18 | 33 | 143 | 87 | 50 | 53 | 41 | 99 | 64 | 65 | –
O=C(Nc1nc2cc(O)ccc2s1)c1ccccn1 [Compound 03-13] | – | – | – | – | – | – | 71 | – | – | 60 | 43 | 34 | 141 | 115 | 71 | 72 | 69 | 105 | 45 | 71 | –
